The structures appear in SMILES notation.

Chain of human Kv1.3 (P22001 whole entry): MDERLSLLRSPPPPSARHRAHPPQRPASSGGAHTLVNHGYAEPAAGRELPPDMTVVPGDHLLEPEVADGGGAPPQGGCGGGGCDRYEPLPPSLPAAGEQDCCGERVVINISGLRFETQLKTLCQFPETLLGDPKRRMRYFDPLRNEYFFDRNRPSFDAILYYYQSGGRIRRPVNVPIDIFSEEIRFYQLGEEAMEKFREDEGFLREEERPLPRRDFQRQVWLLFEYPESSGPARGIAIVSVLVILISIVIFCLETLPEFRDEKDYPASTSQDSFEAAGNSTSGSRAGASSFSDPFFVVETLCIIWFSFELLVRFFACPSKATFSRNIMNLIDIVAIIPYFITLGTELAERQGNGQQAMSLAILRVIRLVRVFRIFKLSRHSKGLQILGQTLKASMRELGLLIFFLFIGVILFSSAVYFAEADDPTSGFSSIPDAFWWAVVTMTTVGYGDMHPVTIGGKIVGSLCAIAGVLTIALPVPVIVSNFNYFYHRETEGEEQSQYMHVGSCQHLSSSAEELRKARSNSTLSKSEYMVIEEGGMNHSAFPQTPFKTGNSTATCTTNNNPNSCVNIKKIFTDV

The assay has as its target human Kv1.3 (Homo sapiens, UniProt P22001). As to the kind of experiment: Kv1.3 patch-clamp electrophysiology (planar electrode, whole-cell, steady state current). In kind it is cell-based. As to conditions: CHO/Kv1.3 stable cell line; steady state current amplitude at end of 500 ms depolarising pulse to +40 mV; values given as ranges; read-out: IC50 (Kv1.3 ephys steady state). On the procedure: The inhibition data shown for the compounds of the list below was calculated using the steady state current amplitude at the end of the depolarising pulse in patch clamp evaluations (as described in the Pharmacology Example 2).
The human Kv1.3 construct (Kv1.3/pENTR, clone IOH61428) was purchased from Invitrogen and subcloned into pcDNA 3.2-DEST (Invitrogen). CHO-K1 cells obtained from ATCC (cat #CCL-61) were transfected with the Kv1.3/pcDNA3.2DEST construct and a stable cell line was developed through two rounds of limiting dilution under G418 selection. Positive (Kv1.3 expressing) clones were identified using electrophysiology.
CHO/Kv1.x stable cell lines were grown in a humidified atmosphere at 37 °C, 5% CO2 in T-75 flasks containing F12 Kaighn's medium supplemented with 10% fetal calf serum, 2 mM L-glutamine, 100 units/ml penicillin, 100 µg/ml streptomycin and 500 µg/ml G418 (to maintain selection). CHO/Kv1.1 and CHO/Kv1.5 cells used for patching were transferred to 33 °C for 48 hours prior to use.
Kv1.x currents were measured using a planar electrode version (Nanion Technologies GMBH) of the patch-clamp technique. Whole-cell Kv1.x current transients were evoked by 500 ms depolarising voltage pulses to +40 mV from a holding potential of -80 mV applied at 10 s intervals for Kv1.1 and Kv1.5 and at 30 s intervals for Kv1.3 to allow adequate time for recovery from inactivation. Cells were continuously bathed in a buffered saline solution containing (mM): 160 NaCl, 4.5 KCI, 2 CaCl2, 1 MgCl2, 5 glucose, 10 HEPES, pH 7.4, 290-310 mOsm.Kg^-1. The internal (pipette) solution contained (mM): 10 NaCl, 70 KF, 75 KCI, 2 MgCl2, 10 HEPES, 10 EGTA, pH 7.2, 290-310 mOsm.Kg^-1. Series resistance compensation (60-80%) was applied when the peak current amplitude exceeded 2 nA.
Compounds were initially dissolved in DMSO to 10 mM. After further dilution in DMSO, compounds were finally diluted in bath solution 1/200 (to give a final DMSO concentration of 0.5%) and applied directly to the recording chamber. Compounds were added at increasing concentrations allowing ample time for steady state block to be achieved between each concentration. Each compound was tested at 5-6 different concentrations on 2-3 cells. IC50 values can be determined by fitting the average normalised reduction of either the current integral or the steady state current amplitude at the end of the depolarising pulse obtained at each compound concentration to the Hill equation. The IC50 data reported herein is based on the steady state calculation.
In general, IC50 refers to the point on the concentration scale where inhibition reaches its midpoint. As for `CC1(C)Oc2ccc(C(C3CC3)N(Cc3ccccn3)C(=O)COc3ccc(F)cc3)cc2S1(=O)=O` (stereo not shown) [Example 77, N-[cyclopropyl(2,2-dimethyl-3,3-dioxido-1,3-benzoxathiol-5-yl)methyl]-2-(4-fluorophenoxy)-N-(pyridin-2-ylmethyl)acetamide], the IC50 was in the range of 50 to 200 nM.
In the case of `O=C(CS(=O)(=O)c1ccc(F)cc1)N(Cc1ccccn1)C(c1ccccc1)C1CC1` (stereo not shown) [Example 15, N-[cyclopropyl(phenyl)methyl]-2-[(4-fluorophenyl)sulfonyl]-N-(pyridin-2-ylmethyl)acetamide], the concentration for half-maximal inhibition (IC50) is 200 to 1000 nM.
For the molecule `CCC(CC)C(c1ccccc1)N(Cc1ccccn1)C(=O)CCc1ccc(F)cc1` (stereo not shown) [Example 22, N-(2-ethyl-1-phenylbutyl)-3-(4-fluorophenyl)-N-(pyridin-2-ylmethyl)propanamide], the concentration for half-maximal inhibition (IC50) was 200 to 1000 nM.
`CC(c1ccc2c(c1)[S+]([O-])C(C)(C)O2)N(Cc1ccccn1)C(=O)CCc1cccc(C(F)(F)F)c1` (stereo not shown) [Example 63, N-[1-(2,2-dimethyl-3-oxido-1,3-benzoxathiol-5-yl)ethyl]-N-(pyridin-2-ylmethyl)-3-[3-(trifluoromethyl)phenyl]propanamide]: the half-maximal inhibitory concentration (IC50) is over 1000 nM.

These data come from patent publication EP2524912A1, “Amine derivatives” (Bionomics Limited, priority 2011, dated 2012).
